Three molecules from patent publication US7354593B2, “Coccidial vaccine and methods of making and using same” (Merial Limited, priority 2002, dated 2008) can be followed below.

Each structure is given as a SMILES string. Where two headings read alike, the source gives them in different places.

Data set [1] has as its system Clostridium sordelli. Format: in vivo, Gallus domesticus (chicken). The following applies: necrotic enteritis mortality. As to the method:
(§1) Observations. Birds were weighed by pen at 0 and 28 days and by pen and sex at 49 days. Dead birds were collected twice daily and necropsy performed to determine cause of death.
Concurrent Medications and Management of Adverse Events. The Coccivac vaccinated birds became sick 14 days into the trial. […] The responsible agent was identified as Clostridium sordelli. All birds in the trial were administered Penicillin G to decrease contamination, and the affects thereof, between pens and to eliminate any difference in treatments among the groups that could skew the coccidiosis results.
It is important to note that the Coccivac vaccinated birds became infected with Clostridium sordelli. Clostridial disease has been linked to infection with coccidiosis in the field. Even though the infection did spread to the other treatments, the Coccivac vaccinated birds were the most affected showing 11.77% mortality.

Data set [2] is described as follows: Floor pen phase: live weight, feed conversion and total mortality during 7-week grow-out. Format: in vivo, Gallus domesticus (chicken).
Text: The timeline was as follows. On Day 0, birds were weighed by pen. The birds in Groups 1 and 2 were vaccinated as described in Table 9, with 1300 birds per vaccine regime, divided between 2 pens, one in each half of the house. The birds in Group 3 were started on Salinomycin, 60 g/ton, divided as described for Groups 1 and 2. The pens were stocked. Extra hatchmates were retained in wire cages as unvaccinated chicks.
On Day 21, the feed from starter to grower was changed for all birds. Salinomycin was continued in Group 3.
On Day 42, all groups were changed to unmedicated finisher feed and the feed back was weighed.
On Day 49, all birds and feed were weighed and the trial was terminated.
Vaccination/Medication. Three treatments of birds identified as Groups 1-3 in Table 9, were replicated in half houses, three pens per house, 650 birds per pen, for a total of 1300 birds per treatment. Birds in […] were vaccinated as described in Table 9. An additional treatment group (4) was maintained separately in clean cages as unvaccinated, untreated controls, for use in the challenge test only.
Treatment Groups 1, 2, and 4 were given non-medicated feed. Treatment Group 3 was given Salinomycin (60 g/ton) beginning on Day 1 through Day 42. The birds in Group 3 to be challenged were given non-medicated feed after the move to the challenge cages. Starter feed was given until 21 days, grower until 42 days and finisher until 49 days. The feed issued was recorded, and any remaining unconsumed feed was weighed back at the time of feed changes and at termination.
as §1
(§2) Criteria for Measurement. The primary variables for the floor pen phase were live weights at 28 and 49 days and feed conversion at 49 days. For the challenge phase, primary variables were weight gain six days after challenge, and lesion scores of the upper, mid and cecal gut sections, also at six days after challenge.

In data set [3] the test system is E. acervulina, E. mitis, E. tenella, E. maxima. The experiment in a line: Challenge phase: polyvalent oral challenge with virulent Eimeria, lesion scores and weight gain six days after challenge. Format: in vivo, Gallus domesticus (chicken).
Text: Six days following challenge, the vaccinates and controls from each of the Groups in Table 4 were sacrificed, weighed, and the intestines and ceca were examined and scored for lesions. Scoring was in accordance with the Johnson and Reid cocciodial scoring system, as described in Experimental Parisitology, Vol. 28, p 30-36, 1970, the disclosure of which is incorporated by reference in its entirety, as shown in Table 5.
On Day 28, the birds to be challenged were moved to wire cages. Salinomycin was discontinued in Group 3 birds to be challenged. All birds and feed we weighed. Fresh fecal samples were collected from the litter from each group in the large pens, 20 samples per pen. Oocysts by quantified by species.
On Day 29, birds in the cages were challenged using the number of oocysts described in Table 7.
On Day 35, the challenge birds were terminated, the lesions were scored, and weight gains were taken.
Challenge. At Day 28, 3 reps of 10 birds from each pen (total of 60 per treatment) were weighed and moved to the battery cages for challenge with field strains of Eimeria (corresponding to the species used in the vaccine). All birds were given non-medicated feed in the cages. On Day 29, birds of Groups 1-4 were challenged and then terminated on Day 35. Lesion scores and weights were recorded.
as §2

Data set [4] concerns Salmonella. In words: Killing of Salmonella by oocyst processing agents.
The subject of data set [5] is Mycoplasma. The experiment in a line: Killing of Mycoplasma by oocyst processing agent.

As for `CC[C@@H](C(=O)[C@@H](C)[C@@H](O)[C@H](C)[C@@H]1O[C@@H]([C@@H](CC)C(=O)O)CC[C@@H]1C)[C@H]1O[C@]2(C=C[C@@H](O)[C@]3(CC[C@@](C)([C@H]4CC[C@](O)(CC)[C@H](C)O4)O3)O2)[C@H](C)C[C@@H]1C` [SALINOMYCIN, Salinomycin], the “% Mortality NE” value in data set [1] (28 Day Summary) was 0.46%. Besides, in data set [1] (49 Day Summary), the “% Mortality NE” value worked out at 0.53%. In addition, in data set [2] (28 Day Summary), the “% All Mortality” value came out at 3.76% and the “Feed Conversion” value is 1.383. In addition, in data set [2] (28 Day Summary, commercial birds, floor pens), the “Avg Live Wt” value stood at 1.45. In data set [2] (49 Day Summary), the “% Mortality Total” value was 5.38%, the “Avg Live Female Wt” value was 2.63, the “Avg Live Male Wt” value is given as 3.17 and the “Avg Total Live Wt” value was 2.90. Also, the “Feed Conversion” value in data set [2] (49 Day Summary) came out at 1.86. Moreover, in data set [3] (Day 28, before challenge, 60 birds challenged per treatment), the “Initial Wt.” value is 1435.47ab. Besides, the “Final Wt.” value in data set [3] (Day 35, six days after challenge) was 1488.97b. Moreover, the “% Mortality Due to Coccidiosis” value in data set [3] (after challenge) came to 0%. In addition, the “Ceca Lesion Score” value in data set [3] (ceca, six days after challenge, Johnson and Reid score 0 to +4) is recorded as 3.25a. In addition, the “Middle Lesion Score” value in data set [3] (mid gut, six days after challenge, Johnson and Reid score 0 to +4) is on record as 2.90b. In data set [3] (six days after challenge), the “6 Day Wt. Gain” value is 53.50 days, the “ATLS (average total lesion score)” value stood at 2.88a and the “TLS (total lesion score)” value was 8.65a. The “Upper Lesion Score” value in data set [3] (upper intestine, six days after challenge, Johnson and Reid score 0 to +4) was determined as 2.50a.

As for `[K+].[K+].[O]=[Cr](=[O])([O-])[O][Cr](=[O])(=[O])[O-]` [potassium dichromate], the “killing of Salmonella” value in data set [4] is “effectively killed”.

Regarding `OCl` [sodium hypochlorite], the “killing of Salmonella” value in data set [4] was “effectively killed”. Moreover, the “killing of Mycoplasma” value in data set [5] is listed as “effectively killed”.
